Laboratory results: patent US6903235B2, “Pharmaceutical-grade ferric citrate” (Panion & BF Biotech Inc., priority 2003, dated 2005)

Test: Stability of the product at 40° C. / 75% RH (ferric citrate assay and ferric assay by titration)
Format: physicochemical
Conditions: Temperature 40° C. ± 2° C., Humidity 75% ± 5% RH
Protocol: 1.1.3. Stability of the Product
0.5 g of ferric citrate, accurately weighed, in 100 mL of water and 5 mL of hydrochloric acid were added in a flask on a water bath until dissolved. 3 g of potassium iodide and 5 mL of hydrochloric acid were added to the flask to form a mixture, and a stopper was inserted in the flask. The mixture was allowed to stand for 15 minutes, and the librated iodine was titrated with 0.1 N sodium thiosulfate solution using a starch test solution as an indicator. A blank test was performed with the same quantities of reagents and in the same manner, and corrections were made if necessary. Each milliliter of 0.1 N sodium thiosulfate is equivalent to 24.496 mg of FeC6H5O7 and each milliliter of 0.1 N sodium thiosulfate is equivalent to 5.585 mg of Iron(III).

Substance: ferric citrate [FeC6H5O7 product]
- Ferric assay (1st month): 17.68%
- Ferric citrate assay (1st month): 99.65%
- Ferric assay (2nd month): 17.66%
- Ferric citrate assay (2nd month): 99.58%
- Ferric assay (3rd month): 17.70%
- Ferric citrate assay (3rd month): 99.79%
- Ferric assay (6th month): 17.81%
- Ferric citrate assay (6th month): 100.37%
- Ferric assay (Initial): 17.69%
- Ferric citrate assay (Initial): 99.70%
